In US6632977B2 (priority 1996, dated 2003):
Read-outs that look alike come from different tables or passages of the source.

What was measured:
δ receptor [1] = molecular target: T1, δ receptor (Mus musculus, UniProt P32300); conditions: for Bmax: [3H]NTI, μ receptor gene line; for NTI Bmax: kappa receptor gene line
[2] = tested on: mixed lymphocyte reaction (MLR); conditions: in vitro; cited from earlier work
transplant rejection = conditions: in vivo; cited from earlier work
δ receptor [3] = molecular target: T1, δ receptor; test: biochemical
adenylate cyclase = test: Adenylate cyclase activity in brain homogenates after morphine deficiency induced by naloxone; format: in vivo, mice; parameters: Adenylate cyclase activity stimulated by forskolin: dose or concentration left out as unconfirmed; conditions: for increase in adenylate cyclase activity in the striatum: naloxone after chronic morphine; for Adenylate cyclase activity stimulated by forskolin: FK; for Adenylate cyclase activity stimulated by forskolin / Adenylate cyclase activity, basal: chronic morphine then naloxone

T1 sequence (P32300 whole entry): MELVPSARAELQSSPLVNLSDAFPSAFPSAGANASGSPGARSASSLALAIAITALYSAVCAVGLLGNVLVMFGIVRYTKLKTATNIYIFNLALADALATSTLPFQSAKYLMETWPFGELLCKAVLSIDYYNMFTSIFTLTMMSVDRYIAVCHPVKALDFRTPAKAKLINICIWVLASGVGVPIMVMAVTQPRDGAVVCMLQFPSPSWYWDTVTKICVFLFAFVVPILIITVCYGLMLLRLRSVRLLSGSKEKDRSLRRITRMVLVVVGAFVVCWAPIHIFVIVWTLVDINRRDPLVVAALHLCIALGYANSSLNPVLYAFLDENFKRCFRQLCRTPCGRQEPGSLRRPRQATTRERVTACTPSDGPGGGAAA

## Oc1ccc2c3c1O[C@H]1c4[nH]c5ccccc5c4C[C@@]4(O)[C@@H](C2)N(CC2CC2)CC[C@]314 [NTI, naltrindole]
δ receptor [1]; heterozygous +/−
  Bmax: 0.103
  NTI Bmax: 0.170 pmole/mg proteins
δ receptor [1]; homozygous −/−
  Bmax: 0.124
  NTI Bmax: 0.190 pmole/mg proteins
δ receptor [1]; wild +/+
  Bmax: 0.095
  NTI Bmax: 0.204 pmole/mg proteins
δ receptor [1]; brains of +/+, +/− and −/− MOR mice
  binding curves (Scatchard) compared between genotypes: superimposable
δ receptor [1]; kappa mutant animals with respect to wild animals
  change in binding of the delta ligands: no change in the binding
[2]
  effect on the mixed lymphocyte reaction (MLR): suppressant effect
Transplant rejection
  effect on transplant rejection: prevents transplant rejection
δ receptor [3]; Kd, [3H]NTI, μ receptor gene line, heterozygous +/−
  Kd: 0.075 nM
δ receptor [3]; Kd, [3H]NTI, μ receptor gene line, homozygous −/−
  Kd: 0.082 nM
δ receptor [3]; Kd, [3H]NTI, μ receptor gene line, wild +/+
  Kd: 0.068 nM
δ receptor [3]; NTI Kd, kappa receptor gene line, heterozygous +/−
  Kd: 0.109 nM
δ receptor [3]; NTI Kd, kappa receptor gene line, homozygous −/−
  Kd: 0.114 nM
δ receptor [3]; NTI Kd, kappa receptor gene line, wild +/+
  Kd: 0.108 nM

## CN1CC[C@]23c4c5ccc(O)c4O[C@H]2[C@@H](O)C=C[C@H]3[C@H]1C5 [morphine]
Adenylate cyclase; animals deficient in the μ receptor
  increase in adenylate cyclase activity in the striatum: absent
Adenylate cyclase; cerebellum, μ +/+
  Adenylate cyclase activity stimulated by forskolin: 966 ± 55 pmoles of cyclic AMP formed/minute/mg of protein
  Adenylate cyclase activity, basal: 209 ± 30 pmoles of cyclic AMP formed/minute/mg of protein
Adenylate cyclase; cerebellum, μ −/−
  Adenylate cyclase activity stimulated by forskolin: 979 ± 73 pmoles of cyclic AMP formed/minute/mg of protein
  Adenylate cyclase activity, basal: 213 ± 42 pmoles of cyclic AMP formed/minute/mg of protein
Adenylate cyclase; striatum, μ +/+
  Adenylate cyclase activity stimulated by forskolin: 1473 ± 43 pmoles of cyclic AMP formed/minute/mg of protein
  Adenylate cyclase activity, basal: 401 ± 22 pmoles of cyclic AMP formed/minute/mg of protein
Adenylate cyclase; striatum, μ −/−
  Adenylate cyclase activity stimulated by forskolin: 1158 ± 108 pmoles of cyclic AMP formed/minute/mg of protein
  Adenylate cyclase activity, basal: 304 ± 28 pmoles of cyclic AMP formed/minute/mg of protein
Adenylate cyclase; wild mice
  increase in adenylate cyclase activity in the striatum: 30%
